Experimental data as given in patent US20080152714A1, “Pharmaceutical Formulations” (priority 2005, published 2008).
Read-outs that look alike come from different tables or passages of the source.

Columns and labels:
[1] = Solubility of fenofibric acid salts in water at 25° C.; type: physicochemical
Experimental: Solubility Determination: Solubility values of fenofibric acid salts in water were determined at 25° C. The salts were weighed into glass vials and water was added. The suspensions were rotated from end to end for about 2 days in a 25° C. water bath. The pH of the suspensions was measured. The residual solid was then removed via filtration through a 0.45 μm PTFE membrane filter. The resulting saturated solution was diluted appropriately into the HPLC mobile phase, and analyzed by the HPLC assay described below (Table 3). The powder x-ray diffraction pattern of the collected residual solid was recorded at the end of experiment.

[2] = Intrinsic dissolution rate (IDR); type: physicochemical; conditions: pH 6.8, 50 mM sodium citrate buffer, 37° C.
Experimental: The intrinsic dissolution rate is the rate of dissolution of pharmaceutically acceptable ingredients when conditions such as surface area, agitation or stirring speed, pH and ionic strength of the dissolution medium are held constant.
Pellets of the salts were prepared by compressing ca. 100 mg of the compound in a stainless steel die under 1300 pounds force with a dwell time of one minute. The die containing the tablet was submerged in 400 mL of the dissolution medium at 37° C. The solution was stirred by a paddle at ˜60 rpm. At each time point, 3 mL of sample was withdrawn and filtered. After discarding the first half of the filtrate, the remainder was collected and assayed by HPLC method above. The total volume of the dissolution medium was kept at a constant by replenishing the lost volume at each data point with fresh buffer at 37 C.

Compound | solubility ([1]; read-out: Solubility) | IDR [2] | solubility [1]
C[N+](C)(C)CCO [Choline] | > 300000 µg/mL | 14.50 mg/min/cm^2 | –
Tris | – | 0.67 mg/min/cm^2 | 5450 µg/mL
CN(C)C(=N)N=C(N)N [Metformin] | – | 7.09 mg/min/cm^2 | –
NCCO [Ethanolamine] | – | 8.05 mg/min/cm^2 | –
CCN(CC)CCOC(=O)c1ccc(N)cc1 [Procaine] | 7200 µg/mL | 1.06 mg/min/cm^2 | –
Calcium | – | 0.10 mg/min/cm^2 | –
CC(C)(Oc1ccc(C(=O)c2ccc(Cl)cc2)cc1)C(=O)O [Free acid, 2-[4-(4-chlorobenzoyl)phenoxy]-2-methyl-propanoic acid, reference compound] | 265 µg/mL | 0.30 mg/min/cm^2 | –
